Results taken from patent publication US6649814B2, “Cytochrome P450 monooxygenases” (Syngenta Participations AG, priority 1997, dated 2003).

Legend:
[1] = biological target: T1, cytochrome P450OX (Sorghum bicolor, UniProt O48958); assay: reconstitution of cytochrome P450OX activity in lipid micelles; type: biochemical; design: from tissue; host or cells: microsomes of etiolated Sorghum bicolor seedlings; conditions: 10 mM, in place of NADPH
T1 sequence (O48958 2-531): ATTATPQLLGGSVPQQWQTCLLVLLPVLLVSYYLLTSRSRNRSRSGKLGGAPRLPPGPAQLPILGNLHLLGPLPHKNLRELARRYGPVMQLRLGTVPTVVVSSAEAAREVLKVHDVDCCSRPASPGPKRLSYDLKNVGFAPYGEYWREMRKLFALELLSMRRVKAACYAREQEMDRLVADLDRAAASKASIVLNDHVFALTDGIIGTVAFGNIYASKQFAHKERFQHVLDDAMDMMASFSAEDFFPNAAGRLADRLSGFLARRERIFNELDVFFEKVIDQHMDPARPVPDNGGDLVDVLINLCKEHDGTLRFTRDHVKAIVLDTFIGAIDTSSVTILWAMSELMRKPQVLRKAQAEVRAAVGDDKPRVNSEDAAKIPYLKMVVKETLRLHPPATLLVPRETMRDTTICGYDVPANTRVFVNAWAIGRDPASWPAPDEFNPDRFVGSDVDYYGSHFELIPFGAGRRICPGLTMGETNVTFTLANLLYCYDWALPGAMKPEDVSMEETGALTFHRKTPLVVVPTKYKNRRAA
Text: (§1) Reconstitution of the enzyme activity of a microsomal cytochrome P450 is accomplished by inserting the cytochrome P450 enzyme and the corresponding NADPH cytochrome P450 oxidoreductase into lipid micelles. A mixture of lipids can be used but in the case of cytochrome P450OX, dilauroylphosphatidylcholine (DLPC) provides the best enzymatic activity. The number of correctly formed complexes of cytochrome P450OX and NADPH cytochrome P450 oxidoreductase are a rate limiting factor. Excess amounts of the oxidoreductase and concentrated enzyme solutions are utilized to ensure a sufficient number of active complexes.
(§2) A functionally reconstituted enzyme is obtained using the following components: […]
(§3) The complete reaction mixtures contain: 3 μl of isolated, recombinant P450TYR (6 pmol, heterologously expressed in E. coli and isolated as in Halkier et al, Arch. Biochem. Biophys. 322: 369-377, 1995), 10 μl of isolated and dialyzed P450OX (approximately 0.4 pmol), 5 μl of NADPH-P450 oxidoreductase (0.075 U), 1 μl of partially purified UDPG glucosyl transferase from Sorghum, 5 μl of DLPC (10 mg/ml in 50 mM Kpi (pH7)), 0.25 μl of [U-^14C]-tyrosine ([…], 443 mCi/mmol, Amersham), 3 μl of UDPG (33 mg/ml in 50 mM Kpi (pH7)), and 3 μl of castanospermin (2 mM in 50 mM Kpi (pH7)). […] The first set of reaction mixtures is analyzed using the ethyl acetate/toluene solvent as in example 4.5. […]

[2] = biological target: T1, cytochrome P450OX; assay: as above; type: biochemical; design: 10 μl of the cytochrome P450OX (approximately 0.4 pmol) solution; from tissue; host or cells: microsomes of etiolated Sorghum bicolor seedlings
Text: as §1, §2, §3

[3] = test system: glucosidase activity present in the UDPG glucosyltransferase extract; assay: inhibition of glucosidase activity in the in vitro dhurrin reconstitution; type: biochemical, Sorghum; conditions: 3 μl of 2 mM in 30 μl reaction mixture
Experimental: as §3, with “4.5. The second set of reaction mixtures is analyzed using a solvent system consisting of ethyl acetate/acetone/dichloromethane/methanol/water (20/15/6/5/4, v/v/v/v/v) in order to achieve separation of the hydrophilic product dhurrin from tyrosine and from the hydrophobic intermediates.” for “4.5.”
The combined use of isolated P450TYR and P450OX in reconstitution experiments with radiolabeled tyrosine as substrate results in the production of p-hydroxyphenylacetonitrile and p-hydroxybenzaldehyde. […] Due to the lability of p-hydroxymandelonitrile its conversion to dhurrin is experimentally detected as a disappearance of p-hydroxybenzaldehyde. […]

[4] = biological target: T2, P450OX (Sorghum bicolor, UniProt O48958); assay: substrate binding spectra of isolated P450OX; conditions: for substrate binding spectrum: upon substrate addition
T2 construct: from tissue; host or cells: microsomes of etiolated Sorghum bicolor seedlings
T2 sequence (O48958 1-531): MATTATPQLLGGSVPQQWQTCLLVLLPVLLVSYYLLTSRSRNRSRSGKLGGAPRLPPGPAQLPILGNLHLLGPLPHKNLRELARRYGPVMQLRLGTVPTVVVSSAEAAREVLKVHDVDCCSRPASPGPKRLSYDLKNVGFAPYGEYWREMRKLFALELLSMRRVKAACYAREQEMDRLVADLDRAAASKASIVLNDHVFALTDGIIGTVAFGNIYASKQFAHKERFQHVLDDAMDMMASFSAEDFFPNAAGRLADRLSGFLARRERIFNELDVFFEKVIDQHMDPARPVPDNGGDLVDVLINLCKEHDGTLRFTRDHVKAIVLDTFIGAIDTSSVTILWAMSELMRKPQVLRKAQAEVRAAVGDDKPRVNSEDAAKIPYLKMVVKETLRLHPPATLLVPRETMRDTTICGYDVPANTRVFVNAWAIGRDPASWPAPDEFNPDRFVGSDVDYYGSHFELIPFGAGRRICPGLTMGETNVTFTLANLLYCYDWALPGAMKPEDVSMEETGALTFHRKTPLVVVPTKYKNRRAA
Experimental: The identification of P450OX as a multifunctional enzyme converting p-hydroxyphenylacetaldoxime to p-hydroxymandelonitrile with p-hydroxyphenylacetonitrile as an intermediate stimulated us to investigate the substrate binding ability of P450OX. […] The amplitude increased in size upon incubation and reached a stable maximum after approximately 45 min.
The isolated P450OX produces a reverse Type I substrate binding spectrum upon incubation with p-hydroxyphenylacetaldoxime. The extinction coefficient E420-390 corresponding to a complete transition from one spin state to the other is 130 mM^−1 cm^−1. In the substrate binding spectra obtained, the maximal amplitudes are approximately twice as large as theoretically calculated even when assuming a complete shift from a high spin to a low spin state. […] Alternatively, the P420 form of P450OX is able to bind the oxime and thus contributes to the size of the substrate binding spectrum formed. The latter possibility could explain why maximal amplitudes are only obtained after prolonged incubation.

[5] = test system: microsomal system; conditions: the substance is the substrate, cited from earlier work; for Km: read-out: Km for p-hydroxymandelonitrile production
[6] = biological target: T3, P450TYR (CYP79) (Sorghum bicolor, UniProt Q43135); conditions: upon in vitro reconstitution; cited from earlier work
T3 sequence (Q43135 1-558): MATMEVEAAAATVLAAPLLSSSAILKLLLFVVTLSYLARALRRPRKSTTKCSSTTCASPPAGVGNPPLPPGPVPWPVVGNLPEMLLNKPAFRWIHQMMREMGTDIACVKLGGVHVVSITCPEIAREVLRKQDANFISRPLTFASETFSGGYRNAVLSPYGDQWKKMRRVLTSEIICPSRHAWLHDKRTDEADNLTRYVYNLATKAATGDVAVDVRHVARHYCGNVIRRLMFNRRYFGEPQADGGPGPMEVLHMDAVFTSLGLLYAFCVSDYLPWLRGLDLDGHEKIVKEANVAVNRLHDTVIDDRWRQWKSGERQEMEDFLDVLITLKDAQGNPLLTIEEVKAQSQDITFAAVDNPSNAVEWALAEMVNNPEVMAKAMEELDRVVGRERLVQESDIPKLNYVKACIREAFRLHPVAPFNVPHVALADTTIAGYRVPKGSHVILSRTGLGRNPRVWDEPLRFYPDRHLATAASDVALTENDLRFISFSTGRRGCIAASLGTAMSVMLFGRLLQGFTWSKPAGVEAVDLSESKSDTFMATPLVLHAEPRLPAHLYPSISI

O=S([O-])S(=O)[O-].[Na+].[Na+] [Sodium dithionite, reference compound]
support of metabolism of p-hydroxyphenylacetaldoxime by P450OX [1]: does not support metabolism

ON=CCc1ccccc1 [phenylacetaldoxime]
metabolism of the oxime as substrate of P450OX [2]: can metabolize

O[C@H]1[C@H](O)[C@@H](O)CN2CC[C@H](O)[C@H]12 [castanospermine]
inhibition of glucosidase activity [3]: efficiently inhibited

ON=CCc1ccc(O)cc1 [p-hydroxyphenylacetaldoxime]
incubation time until the amplitude of the binding spectrum reached a stable maximum [4]: approximately 45 min | substrate binding spectrum [4]: reverse type I spectrum | metabolism of the oxime as substrate of P450OX [2]: fully metabolized | Km [5]: 50 µM | Vmax for p-hydroxymandelonitrile production [5]: 400 nmoles mg protein^−1 h^−1

N#CCc1ccc(O)cc1 [p-hydroxyphenylacetonitrile]
substrate binding spectrum [4]: No substrate binding spectrum was obtained | Km [5]: 100 µM | Vmax for p-hydroxymandelonitrile production [5]: 50 nmoles mg protein^−1 h^−1

N[C@@H](Cc1ccc(O)cc1)C(=O)O [tyrosine]
Km [5]: 30 µM | Vmax for p-hydroxymandelonitrile production [5]: 145 nmoles mg protein^−1 h^−1

B1: P450TYR: cytochrome P450 of Sorghum bicolor that converts tyrosine to p-hydroxyphenylacetaldehyd oxime (protein, UniProt Q43135 2-558, looked up)
Tyrosine N-monooxygenase: ATMEVEAAAATVLAAPLLSSSAILKLLLFVVTLSYLARALRRPRKSTTKCSSTTCASPPAGVGNPPLPPGPVPWPVVGNLPEMLLNKPAFRWIHQMMREMGTDIACVKLGGVHVVSITCPEIAREVLRKQDANFISRPLTFASETFSGGYRNAVLSPYGDQWKKMRRVLTSEIICPSRHAWLHDKRTDEADNLTRYVYNLATKAATGDVAVDVRHVARHYCGNVIRRLMFNRRYFGEPQADGGPGPMEVLHMDAVFTSLGLLYAFCVSDYLPWLRGLDLDGHEKIVKEANVAVNRLHDTVIDDRWRQWKSGERQEMEDFLDVLITLKDAQGNPLLTIEEVKAQSQDITFAAVDNPSNAVEWALAEMVNNPEVMAKAMEELDRVVGRERLVQESDIPKLNYVKACIREAFRLHPVAPFNVPHVALADTTIAGYRVPKGSHVILSRTGLGRNPRVWDEPLRFYPDRHLATAASDVALTENDLRFISFSTGRRGCIAASLGTAMSVMLFGRLLQGFTWSKPAGVEAVDLSESKSDTFMATPLVLHAEPRLPAHLYPSISI
turn-over number [6]: 230 min⁻¹
